In brackets after ≈: the same amount, converted by molar mass.
Tests used:
[1] = test system: Mycobacterium tuberculosis strain H37Rv; experiment: microplate Alamar blue assay (MABA); type: cell-based; conditions: for MIC: Mycobacterium tuberculosis, H37RV; for MIC / MABA MIC: M. tuberculosis H37Rv, lowest concentration effecting 90% inhibition; for MABA percentage in parentheses after the MIC bound: meaning not defined in the paper, printed beside the highest concentration
[2] = test system: nonreplicating persistent (NRP) M. tuberculosis strain; experiment: microbe, parasite or virus in culture; type: cell-based, Mycobacterium tuberculosis; conditions: for MIC: Mycobacterium tuberculosis, read-out: LORA MIC; for LORA percentage in parentheses after the MIC bound: meaning not defined in the paper, printed beside the highest concentration
[3] = target: M. tuberculosis gyrase (GyrA and Gyr B subunits) (Mycobacterium tuberculosis, UniProt P9WG45+P9WG47); experiment: M. tuberculosis gyrase supercoiling assay; type: biochemical; conditions: at 50 μM
M. tuberculosis gyrase (GyrA and Gyr B subunits), sequence (P9WG45 whole entry): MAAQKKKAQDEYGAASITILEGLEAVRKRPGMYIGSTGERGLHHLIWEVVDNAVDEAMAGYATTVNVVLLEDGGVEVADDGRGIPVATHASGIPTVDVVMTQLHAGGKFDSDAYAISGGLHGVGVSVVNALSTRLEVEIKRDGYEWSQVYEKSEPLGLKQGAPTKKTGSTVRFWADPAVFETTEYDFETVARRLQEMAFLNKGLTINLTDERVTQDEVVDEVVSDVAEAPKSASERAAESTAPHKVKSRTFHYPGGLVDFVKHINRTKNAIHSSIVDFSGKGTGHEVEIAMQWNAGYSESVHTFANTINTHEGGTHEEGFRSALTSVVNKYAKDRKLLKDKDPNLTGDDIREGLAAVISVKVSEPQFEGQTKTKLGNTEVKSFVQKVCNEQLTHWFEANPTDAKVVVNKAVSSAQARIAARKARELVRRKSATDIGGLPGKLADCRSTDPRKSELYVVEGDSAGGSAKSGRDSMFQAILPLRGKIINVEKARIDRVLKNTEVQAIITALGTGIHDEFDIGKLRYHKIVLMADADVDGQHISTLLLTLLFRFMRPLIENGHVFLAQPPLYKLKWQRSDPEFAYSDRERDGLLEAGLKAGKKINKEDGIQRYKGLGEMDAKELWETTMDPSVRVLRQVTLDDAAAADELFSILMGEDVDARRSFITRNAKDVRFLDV
M. tuberculosis gyrase (GyrA and Gyr B subunits), sequence (P9WG47 whole entry): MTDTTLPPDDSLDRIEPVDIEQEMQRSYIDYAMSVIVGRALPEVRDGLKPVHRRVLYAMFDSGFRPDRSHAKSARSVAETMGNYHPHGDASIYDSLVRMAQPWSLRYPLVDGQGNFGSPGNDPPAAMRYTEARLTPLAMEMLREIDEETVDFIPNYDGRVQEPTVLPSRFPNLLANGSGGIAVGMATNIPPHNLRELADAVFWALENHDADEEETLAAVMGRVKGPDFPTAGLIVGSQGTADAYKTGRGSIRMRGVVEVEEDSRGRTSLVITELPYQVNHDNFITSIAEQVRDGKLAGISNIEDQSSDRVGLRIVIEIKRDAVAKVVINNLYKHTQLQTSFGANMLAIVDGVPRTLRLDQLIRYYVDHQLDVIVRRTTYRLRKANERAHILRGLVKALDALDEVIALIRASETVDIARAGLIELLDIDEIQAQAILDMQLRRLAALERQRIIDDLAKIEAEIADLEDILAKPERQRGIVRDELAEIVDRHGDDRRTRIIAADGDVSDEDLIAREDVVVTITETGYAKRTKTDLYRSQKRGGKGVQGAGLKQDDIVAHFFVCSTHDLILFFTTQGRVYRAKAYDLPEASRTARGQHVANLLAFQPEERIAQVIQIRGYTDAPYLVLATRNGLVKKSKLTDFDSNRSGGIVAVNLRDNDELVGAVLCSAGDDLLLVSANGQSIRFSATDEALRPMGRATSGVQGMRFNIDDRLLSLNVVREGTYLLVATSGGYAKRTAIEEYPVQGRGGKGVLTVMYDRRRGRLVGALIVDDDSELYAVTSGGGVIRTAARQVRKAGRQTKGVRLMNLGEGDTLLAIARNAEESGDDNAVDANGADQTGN
Method: The activity of the enzyme was determined prior to the testing of the quinoxaline 1,4-di-N-oxide derivatives and 1 U was defined as the amount of enzyme required to just fully supercoil the substrate under test conditions. Compounds were tested at 50 μM. Final DMSO concentration in the assays was 1% (v/v).
1 U of M. tuberculosis gyrase (GyrA and Gyr B subunits) (final concentration in assay 50 nM) was incubated with 0.5 μg of relaxed pBR322 DNA in a 30 μL reaction at 37 °C for 30 min under the following conditions: 50 mM HEPES. KOH (pH 7.9), 6 mM magnesium acetate, 4 mM DTT, 1 mM ATP, 100 mM potassium glutamate, 2 mM spermidine and 0.05 mg/mL albumin.
Each reaction was stopped by the addition of 30 μL chloroform/iso-amyl alcohol (26:1) and 20 μL Stop Dye (40% sucrose, 100 mM Tris.HCl (pH 7.5), 10 mM EDTA, 0.5 μg/mL bromophenol blue), before being loaded on a 1.0% TAE (Tris.acetate […], EDTA […]) gel run at 80 V for 2 h.
Bands were visualized by ethidium staining for 10 min, destained for 10 min in water, analyzed by gel documentation equipment (Syngene, Cambridge, UK), and quantified using Syngene software (Genetools version 4.00 (1997–1998), Syngene, A division of Synoptics Corp, Cambridge, UK).
Raw gel data (fluorescent band volumes) collected from Syngene’s GeneTools gel analysis software were converted to a % of the 100% control (the supercoiled enzyme plus DMSO control DNA band). These were analyzed using SigmaPlot Version 13.0 (Systat Software Inc., London, UK; 2016).

[4] = nonreplicating persistent strain

Row | Structure (SMILES) | MIC [1] [mg/L] | MIC [2, 4] [mg/L] | also measured
1 | COC(=O)c1ccc2c(c1)[n+]([O-])c(C(=O)c1ccccc1)c(C)[n+]2[O-] [Compound T-003] | 3.47 (≈ 10.3 µM) | 1.49 (≈ 4.4 µM) | inhibitory effect on M. tuberculosis gyrase supercoiling [3]: none of the compounds showed an inhibitory effect
2 | CCOC(=O)c1ccc2c(c1)[n+]([O-])c(C(=O)c1ccccc1)c(C)[n+]2[O-] [Compound T-004] | 2.32 (≈ 6.58 µM) | 0.61 (≈ 1.73 µM) | –
3 | COC(=O)c1ccc2c(c1)[n+]([O-])c(C(=O)Nc1ccccc1)c(C)[n+]2[O-] [Compound T-012] | 1.07 (≈ 3.03 µM) | 0.86 (≈ 2.43 µM) | inhibitory effect on M. tuberculosis gyrase supercoiling [3]: none of the compounds showed an inhibitory effect
4 | CCOC(=O)c1c(C)[n+]([O-])c2ccc(C(=O)OC)cc2[n+]1[O-] [Compound T-013] | 0.47 (≈ 1.53 µM) | 0.54 (≈ 1.76 µM) | inhibitory effect on M. tuberculosis gyrase supercoiling [3]: none of the compounds showed an inhibitory effect
5 | COC(=O)c1ccc2no[n+]([O-])c2c1 [Compound T-014] | 7.6 (≈ 39.1 µM) | 13 (≈ 66.9 µM) | –
6 | CCOC(=O)c1ccc2c(c1)[n+]([O-])c(C(=O)OCC)c(C)[n+]2[O-] [Compound T-015] | 0.5 (≈ 1.56 µM) | 0.49 (≈ 1.53 µM) | –
7 | CCOC(=O)c1ccc2c(c1)[n+]([O-])c(C(=O)CC)c(C(F)(F)F)[n+]2[O-] [Compound T-026] | > 22 | 2.5 (≈ 6.98 µM) | MABA MIC [1]: 22.5 mg/L
8 | COC(=O)c1ccc2c(c1)[n+]([O-])c(C(C)=O)c(C)[n+]2[O-] [Compound T-034] | 1.1 (≈ 3.98 µM) | 0.7 (≈ 2.53 µM) | –
9 | COC(=O)c1cc2c(cc1OC)no[n+]2[O-] [Compound T-036] | > 100 | – | MABA MIC [1]: >128 mg/L
10 | CCOC(=O)Cc1c(C(=O)OCC)[n+]([O-])c2cc(C(=O)OC)ccc2[n+]1[O-] [Compound T-037] | 1.2 (≈ 3.17 µM) | 1.9 (≈ 5.02 µM) | –
11 | CCC(=O)c1c(C(F)(F)F)[n+]([O-])c2ccc(C(=O)OC)cc2[n+]1[O-] [Compound T-038] | < 0.4 | – | inhibitory effect on M. tuberculosis gyrase supercoiling [3]: none of the compounds showed an inhibitory effect
12 | COC(=O)c1ccc2c(c1)[n+]([O-])c(C(=O)C(C)C)c(C(F)(F)F)[n+]2[O-] [Compound T-039] | 1.54 (≈ 4.3 µM) | 0.83 (≈ 2.32 µM) | –
13 | CCOC(=O)c1c(-c2ccccc2)[n+]([O-])c2ccc(C(=O)OC)cc2[n+]1[O-] [Compound T-042] | 1 (≈ 2.71 µM) | 0.5 (≈ 1.36 µM) | –
14 | CCOC(=O)c1ccc2c(c1)[n+]([O-])c(C(=O)OCC)c(-c1ccccc1)[n+]2[O-] [Compound T-043] | 0.54 (≈ 1.41 µM) | 0.47 (≈ 1.23 µM) | –
15 | CCOC(=O)c1ccc2c(c1)[n+]([O-])c(C(N)=O)c(C)[n+]2[O-] [Compound T-045] | > 22 | 100 (≈ 344 µM) | MABA MIC [1]: 29.83 mg/L
16 | [O-][n+]1onc2ccccc21 [Compound T-046] | – | – | MABA MIC [1]: 58.5 mg/L; LORA MIC [2, 4]: 46.97 mg/L
17 | CC(C)OC(=O)c1ccc2no[n+]([O-])c2c1 [Compound T-063] | 1.4 (≈ 6.3 µM) | 3.04 (≈ 13.7 µM) | –
18 | COC(=O)c1c(C)[n+]([O-])c2ccc(C(=O)OC(C)C)cc2[n+]1[O-] [Compound T-064] | 0.58 (≈ 1.81 µM) | 0.56 (≈ 1.75 µM) | inhibitory effect on M. tuberculosis gyrase supercoiling [3]: none of the compounds showed an inhibitory effect
19 | CCOC(=O)c1c(C)[n+]([O-])c2ccc(C(=O)OC(C)C)cc2[n+]1[O-] [Compound T-065] | 0.7 (≈ 2.09 µM) | 0.5 (≈ 1.5 µM) | –
20 | Cc1c(C(=O)OC(C)(C)C)[n+]([O-])c2cc(C(=O)OC(C)C)ccc2[n+]1[O-] [Compound T-066] | 68.6 (≈ 189 µM) | > 100 | LORA percentage in parentheses after the MIC bound [2]: 77%
21 | CCOC(=O)Cc1c(C(=O)OCC)[n+]([O-])c2cc(C(=O)OC(C)C)ccc2[n+]1[O-] [Compound T-067] | 3.41 (≈ 8.39 µM) | 2.47 (≈ 6.08 µM) | –
22 | CC(=O)c1c(C(F)(F)F)[n+]([O-])c2ccc(C(=O)OC(C)C)cc2[n+]1[O-] [Compound T-070] | ≤ 0.15 | 0.24 (≈ 0.67 µM) | –

Row | Structure (SMILES) | MIC [1] [mg/L] | MIC [2, 4] [mg/L] | also measured
23 | CC(C)OC(=O)c1ccc2c(c1)[n+]([O-])c(C(=O)c1ccccc1)c(C(F)(F)F)[n+]2[O-] [Compound T-071] | 1.19 (≈ 2.83 µM) | 0.64 (≈ 1.52 µM) | –
24 | CC(C)OC(=O)c1ccc2c(c1)[n+]([O-])c(C(=O)c1ccco1)c(C(F)(F)F)[n+]2[O-] [Compound T-073] | 0.7 (≈ 1.71 µM) | 0.6 (≈ 1.46 µM) | –
25 | CCCOC(=O)c1ccc2no[n+]([O-])c2c1 [Compound T-074] | 0.87 (≈ 3.92 µM) | 4.62 (≈ 20.8 µM) | –
26 | CC(=O)c1c(C)[n+]([O-])c2ccc(C(=O)OC(C)C)cc2[n+]1[O-] [Compound T-084] | 0.8 (≈ 2.63 µM) | 0.6 (≈ 1.97 µM) | –
27 | CCCOC(=O)c1ccc2c(c1)[n+]([O-])c(C(=O)OCC)c(C)[n+]2[O-] [Compound T-090] | 0.8 (≈ 2.39 µM) | – | –
28 | CCCOC(=O)c1ccc2c(c1)[n+]([O-])c(C(=O)C(C)(C)C)c(C)[n+]2[O-] [Compound T-091] | > 100 | – | MABA percentage in parentheses after the MIC bound [1]: 33%
29 | Cc1c(C(=O)Nc2ccccc2)[n+]([O-])c2cc(C(=O)OC(C)C)ccc2[n+]1[O-] [Compound T-097] | > 20 | > 20 | MABA percentage in parentheses after the MIC bound [1]: 6%; LORA percentage in parentheses after the MIC bound [2]: 33%
30 | Cc1c(C(=O)c2ccccc2)[n+]([O-])c2cc(C(=O)OC(C)C)ccc2[n+]1[O-] [Compound T-098] | 4.59 (≈ 12.5 µM) | 2.87 (≈ 7.83 µM) | –
31 | CC(C)OC(=O)c1ccc2c(c1)[n+]([O-])c(C(=O)C(C)(C)C)c(C(C)(C)C)[n+]2[O-] [Compound T-107] | 2.1 (≈ 5.41 µM) | – | –
32 | Cc1c(C(N)=O)[n+]([O-])c2cc(C(=O)OC(C)C)ccc2[n+]1[O-] [Compound T-108] | 22.5 (≈ 73.7 µM) | – | inhibitory effect on M. tuberculosis gyrase supercoiling [3]: none of the compounds showed an inhibitory effect
33 | CCCOC(=O)c1ccc2c(c1)[n+]([O-])c(C(=O)C(C)C)c(C(F)(F)F)[n+]2[O-] [Compound T-111] | 1.5 (≈ 3.88 µM) | – | –
34 | CCCOC(=O)c1ccc2c(c1)[n+]([O-])c(C(=O)OCC)c(C(=O)C(=O)OCC)[n+]2[O-] [Compound T-112] | 1.4 (≈ 3.33 µM) | – | –
35 | CCCOC(=O)c1ccc2c(c1)[n+]([O-])c(C(C)=O)c(C(F)(F)F)[n+]2[O-] [Compound T-113] | 3 (≈ 8.37 µM) | – | –
36 | CCCOC(=O)c1ccc2c(c1)[n+]([O-])c(C(=O)c1ccco1)c(C(F)(F)F)[n+]2[O-] [Compound T-114] | 2.9 (≈ 7.07 µM) | – | inhibitory effect on M. tuberculosis gyrase supercoiling [3]: none of the compounds showed an inhibitory effect
37 | CCCOC(=O)c1ccc2c(c1)[n+]([O-])c(C(=O)c1ccccc1)c(C(F)(F)F)[n+]2[O-] [Compound T-115] | 1.5 (≈ 3.57 µM) | – | –
38 | CCCOC(=O)c1ccc2c(c1)[n+]([O-])c(C(=O)OCC)c(C(F)(F)F)[n+]2[O-] [Compound T-124] | 3 (≈ 7.73 µM) | – | –
39 | CCCOC(=O)c1ccc2c(c1)[n+]([O-])c(C(=O)Nc1ccccc1)c(C)[n+]2[O-] [Compound T-125] | 12.3 (≈ 32.3 µM) | – | inhibitory effect on M. tuberculosis gyrase supercoiling [3]: none of the compounds showed an inhibitory effect
40 | CCCOC(=O)c1ccc2c(c1)[n+]([O-])c(C(C)=O)c(C)[n+]2[O-] [Compound T-126] | 3 (≈ 9.86 µM) | – | –
41 | CCCOC(=O)c1ccc2c(c1)[n+]([O-])c(C(N)=O)c(C)[n+]2[O-] [Compound T-130] | 2.9 (≈ 9.5 µM) | – | –
42 | CCCOC(=O)c1ccc2c(c1)[n+]([O-])c(C(=O)c1ccccc1)c(C)[n+]2[O-] [Compound T-132] | 2.3 (≈ 6.28 µM) | – | –
43 | NNC(=O)c1ccncc1 [INH, isoniazid, reference compound] | 0.12 (≈ 0.875 µM) | > 128 | –

Source: publication PMC6099706, “Anti-Mycobacterium tuberculosis Activity of Esters of Quinoxaline 1,4-Di-N-Oxide” (Molecules : A Journal of Synthetic Chemistry and Natural …, 2018)
